Assay results reported in PMC7681098 (Theranostics, 2021).
pIC50, pKd: −log10 of the molar value. Where two headings read alike, the source gives them in different places.

Experiments:
[1] = tested on: BaF3 cells transfected with FLT3-ITD-N676D and FLT3-ITD-F691L; assay: Subcutaneous xenograft with transfected BaF3 cells; assay type: in vivo, BALB/c nude mice; conditions: 10 mg/kg every other day for 16 days
Method: (§1) Data were shown as mean±SD. […] Data were shown as mean±SD. (C) An engrafted tumor model was used to evaluate in vivo antitumor activity. The NOD/SCID mice were intravenously inoculated with MV4-11 cells. […] Log-rank testing was used to compare survival curves among treatment groups. […] (D) Apoptotic assays in engraft model were evaluated by TUNEL assay and cell proliferative activity was measured by Ki67 assay. Images were acquired at ×40 magnification. (E) BALB/c nude mice were subcutaneously inoculated with MV4-11 cells (5×10^6) and bodyweight of each mouse was recorded every other day. (F) Representative photo of tumors from BALB/c nude mice which were inoculated with MV4-11 cells. (G) BALB/c nude mice were subcutaneously inoculated with BaF3 cells bearing FLT3-ITD-N676D (n=6) and FLT3-ITD-F691L (n=6) respectively. […] (H) BALB/c mice were intravenously inoculated with cells used in (G). […] Log-rank testing was used to compare survival curves among treatment groups. […] (I) Representative photos of spleens dissected from mice in (H) inoculated with BaF3 cells bearing FLT-3-ITD-F691L.
(§2) Cells were injected into the tail vein of BALB/c nude mice and allowed to engraft for 5 days. […] This schedule was repeated for 8 cycles.

FMS = target: T1, FMS (Homo sapiens, UniProt P07333); assay: Kinase inhibition assay (Reaction Biology); assay type: biochemical
T1 construct: purchased Reaction Biology Corporation (PA, USA)

MV4-11 = assay: Cell proliferation MTT assay; assay type: cell-based; conditions: Homo sapiens, 72 h, read-out: Human leukemia cell line IC50 MV4-11
Method: (§3) The conditional medium (CM) was prepared from the supernatant of HS-5 cell culture for 5 days under normal culture conditions. At the indicated time point, cell viability was evaluated by MTT assay.

THP-1 = assay: Cell proliferation MTT assay; assay type: cell-based; conditions: Homo sapiens, 72 h, wild-type FLT3, read-out: Human leukemia cell line IC50 THP-1
Method: as §3

MOLM13 = assay: Cell proliferation MTT assay; assay type: cell-based; conditions: Homo sapiens, MOLM-13, 72 h, read-out: Human leukemia cell line IC50 MOLM13
Method: as §3

[2] = tested on: BaF3-transfected cells (FLT3-ITD-N676D, FLT3-ITD-F691L); assay: Intravenous implantation of BaF3-transfected cells, survival; assay type: in vivo, BALB/c nude mice; conditions: 10 mg/kg once every other day, 8 cycles
Method: as §1, §2

FLT3 (ITD) = FLT3 (ITD) (Homo sapiens, UniProt P36888, ITD); assay: biochemical
[3] = tested on: MV4-11 cells and MOLM13 cells; assay: Subcutaneous xenograft model; assay type: in vivo, BALB/c nude mice
Method: According to previously described, [31], BALB/c nude mice were subcutaneously inoculated with MV4-11 cells (5×10^6) and MOLM13 cells (5×10^6). […] Tumor volume and body weight were measured with the caliper twice weekly. Tumor volumes were calculated based on: tumor volume=length×width^2/2.
LT-171-861 was administered every two days in xenograft mice. […] Tumor-eliminated mice were monitored for an additional 20 days after dosing was halted.
as §1

[4] = tested on: AML patient blasts expressing FLT3-ITD; assay: Viability of AML patient blasts (MTT); assay type: cell-based, human; conditions: 72 h, compared with AC220 and sorafenib
FLT3 = target: T2, FLT3 (Homo sapiens, UniProt P36888); assay: Biolayer interferometry (BLI) binding assay; conditions: ForteBio Octet, 0.3 nM to 1000 nM
T2 construct: The intracellular domain of FLT3 (residues 571-994) was cloned into pMal-c2X; MBP (N); made in house; host or cells: E. coli BL21
Method: The intracellular domain of FLT3 (residues 571-994) was cloned into pMal-c2X containing an N-terminal MBP-tag with a TEV protease cleavage site. The recombinant vector was transformed into E. coli. BL21. Expression and purification of recombinant FLT3 were performed as described previously [25]-[27].
All studies were performed with the Super Streptavidin (SSA) biosensors (CA, USA). All binding experiments were performed according to the manufacturer's instructions. For the cellular thermal shift assay (CETSA), experiments were performed as described previously.
A concentration range from 0.3 nM to 1000 nM was defined (Figure 1B). […] CETSA has been used to identify FLT3-LT-171-861 interactions in live cell settings. […] We first verified that the inhibitor could stabilize FLT3 against denaturation using Western blot. […] An obvious thermal shift of the melting curve was detected in the LT-171-861-treated sample (Figure 1C). […] Accordingly, we identified 53 °C as the optimal temperature for isothermal […] fingerprint (ITDRF) CETSA.
(A) Chemical structure of LT-171-861. […] Data were then fitted to obtain KD value. […] Data were first normalized by setting the highest and lowest value in each set to 100% and 0% respectively. […] Cell viability was evaluated by MTT assay respectively. The IC50 values were calculated using nonlinear regression.

MOLM13 cells = assay: Stroma-protecting model: proliferation in HS-5 conditional medium or normal medium; assay type: cell-based; conditions: Homo sapiens, MOLM-13, 72 h, MTT
Method: At the indicated time point, cell viability was evaluated by MTT assay.
(A) Indicated FLT3 mutations were expressed in BaF3 cells respectively. […] The autophosphorylation level of FLT3 was visualized and compared by western blot analysis. […] The CM was prepared from HS-5 cell culture for 4 days under routine culture conditions, clarified by centrifugation, and used immediately. The CM was added to complete medium at a final concentration of 40%. Cell viabilities were measured by MTT assay. Data were shown as mean±SD. […] The FLT3 phosphorylation levels of FLT3, STAT5 and ERK 1/2 were determined by Western blot.
On the other hand, the bone marrow stroma-protecting environment containing a number of cytokines (e.g. FLT3 ligand, stromal derived factor-1, etc) could also decrease the drug efficacy of FLT3 inhibitors by activating FLT3 or its downstream effectors and building cross-talk between leukemic blasts and bone marrow microenvironment, [35].

JAK2 = target: T3, JAK2 (Homo sapiens, UniProt O60674); assay: Kinase inhibition assay (Reaction Biology); assay type: biochemical
T3 construct: purchased Reaction Biology Corporation (PA, USA)
T3 sequence (O60674 whole entry): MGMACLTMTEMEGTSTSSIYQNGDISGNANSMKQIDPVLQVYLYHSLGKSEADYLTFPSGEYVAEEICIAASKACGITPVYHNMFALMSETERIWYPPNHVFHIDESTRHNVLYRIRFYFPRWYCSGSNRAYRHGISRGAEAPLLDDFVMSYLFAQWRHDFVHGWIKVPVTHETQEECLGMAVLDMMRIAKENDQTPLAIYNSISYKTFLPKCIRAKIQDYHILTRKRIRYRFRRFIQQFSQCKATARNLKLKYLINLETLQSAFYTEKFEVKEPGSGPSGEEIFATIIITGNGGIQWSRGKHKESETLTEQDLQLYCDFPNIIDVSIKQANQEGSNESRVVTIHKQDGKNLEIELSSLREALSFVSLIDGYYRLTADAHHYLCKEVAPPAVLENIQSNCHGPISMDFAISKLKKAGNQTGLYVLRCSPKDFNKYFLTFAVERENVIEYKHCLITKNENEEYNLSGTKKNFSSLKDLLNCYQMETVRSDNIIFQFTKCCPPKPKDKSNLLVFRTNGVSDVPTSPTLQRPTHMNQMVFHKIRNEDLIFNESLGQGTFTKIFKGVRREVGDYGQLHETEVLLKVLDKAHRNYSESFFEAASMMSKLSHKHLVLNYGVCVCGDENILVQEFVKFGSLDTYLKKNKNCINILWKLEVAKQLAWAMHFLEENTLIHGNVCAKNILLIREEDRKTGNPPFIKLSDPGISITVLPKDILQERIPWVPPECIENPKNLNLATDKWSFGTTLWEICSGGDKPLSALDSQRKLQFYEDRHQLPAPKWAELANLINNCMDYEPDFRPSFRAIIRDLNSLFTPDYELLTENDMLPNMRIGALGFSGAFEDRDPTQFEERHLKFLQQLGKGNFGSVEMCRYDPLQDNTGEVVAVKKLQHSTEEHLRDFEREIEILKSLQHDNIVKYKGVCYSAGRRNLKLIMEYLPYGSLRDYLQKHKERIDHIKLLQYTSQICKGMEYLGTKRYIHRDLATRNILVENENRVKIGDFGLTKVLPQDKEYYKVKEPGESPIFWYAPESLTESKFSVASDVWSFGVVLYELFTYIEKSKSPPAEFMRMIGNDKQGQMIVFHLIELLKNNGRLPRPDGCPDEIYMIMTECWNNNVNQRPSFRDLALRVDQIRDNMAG

FLT3 (ITD), sequence (P36888 564-993, stated change not applied): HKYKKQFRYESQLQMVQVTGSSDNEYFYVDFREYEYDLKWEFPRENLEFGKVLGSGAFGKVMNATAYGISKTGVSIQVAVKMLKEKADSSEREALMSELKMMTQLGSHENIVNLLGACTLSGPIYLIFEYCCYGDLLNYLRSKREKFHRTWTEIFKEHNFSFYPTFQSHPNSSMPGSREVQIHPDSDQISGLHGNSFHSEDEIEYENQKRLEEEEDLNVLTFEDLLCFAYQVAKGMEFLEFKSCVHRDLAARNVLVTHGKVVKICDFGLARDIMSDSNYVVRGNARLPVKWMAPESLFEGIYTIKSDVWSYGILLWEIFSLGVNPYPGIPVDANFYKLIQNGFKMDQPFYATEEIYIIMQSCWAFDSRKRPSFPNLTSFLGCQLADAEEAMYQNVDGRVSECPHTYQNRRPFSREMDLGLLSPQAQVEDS
T1 sequence (P07333 20-972): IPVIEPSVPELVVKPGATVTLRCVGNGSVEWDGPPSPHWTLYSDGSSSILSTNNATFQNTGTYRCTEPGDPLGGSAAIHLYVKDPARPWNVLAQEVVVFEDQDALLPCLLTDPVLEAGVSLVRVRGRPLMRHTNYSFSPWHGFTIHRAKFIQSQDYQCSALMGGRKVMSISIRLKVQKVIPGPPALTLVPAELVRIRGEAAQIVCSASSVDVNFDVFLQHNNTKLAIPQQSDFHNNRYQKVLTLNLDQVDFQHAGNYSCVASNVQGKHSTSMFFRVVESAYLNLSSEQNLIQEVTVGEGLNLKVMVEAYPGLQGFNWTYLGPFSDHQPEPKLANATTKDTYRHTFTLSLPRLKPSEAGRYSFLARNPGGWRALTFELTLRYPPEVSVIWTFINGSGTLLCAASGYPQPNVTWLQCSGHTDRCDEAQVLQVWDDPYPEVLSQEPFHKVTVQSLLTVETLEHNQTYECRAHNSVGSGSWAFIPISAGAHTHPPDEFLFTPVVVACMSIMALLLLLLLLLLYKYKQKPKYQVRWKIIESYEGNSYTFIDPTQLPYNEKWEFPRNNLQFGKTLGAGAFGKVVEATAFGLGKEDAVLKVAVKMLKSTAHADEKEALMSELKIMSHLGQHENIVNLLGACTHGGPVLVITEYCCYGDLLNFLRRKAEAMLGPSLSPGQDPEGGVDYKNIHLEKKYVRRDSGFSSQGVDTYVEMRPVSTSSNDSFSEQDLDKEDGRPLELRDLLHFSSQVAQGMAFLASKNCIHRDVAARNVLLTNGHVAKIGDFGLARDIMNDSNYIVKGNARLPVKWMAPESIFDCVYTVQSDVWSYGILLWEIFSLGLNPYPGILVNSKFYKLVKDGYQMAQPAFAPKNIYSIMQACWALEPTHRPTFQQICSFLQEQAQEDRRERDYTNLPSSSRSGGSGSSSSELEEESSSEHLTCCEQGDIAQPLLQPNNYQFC
T2 sequence (P36888 571-993 limits assumed): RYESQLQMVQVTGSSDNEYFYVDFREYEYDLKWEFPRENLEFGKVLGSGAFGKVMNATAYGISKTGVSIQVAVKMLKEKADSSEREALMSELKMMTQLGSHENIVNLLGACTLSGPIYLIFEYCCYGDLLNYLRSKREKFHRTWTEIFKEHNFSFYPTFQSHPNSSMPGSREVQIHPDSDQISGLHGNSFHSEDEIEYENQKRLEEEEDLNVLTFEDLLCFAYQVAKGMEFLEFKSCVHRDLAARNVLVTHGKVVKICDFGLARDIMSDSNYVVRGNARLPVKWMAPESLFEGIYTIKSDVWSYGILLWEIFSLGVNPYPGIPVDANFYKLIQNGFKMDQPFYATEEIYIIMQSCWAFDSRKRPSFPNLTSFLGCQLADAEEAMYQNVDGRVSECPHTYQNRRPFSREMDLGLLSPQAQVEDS

SMILES: CN1CCN(Cc2ccc(NC(=O)c3n[nH]cc3Nc3ncnc4[nH]ccc34)cc2)CC1 [LT-171-861]
- tumor growth [1]: inhibited tumor growth
- pIC50 (FMS): < 6.70
- pIC50 (FMS; 10 μM ATP, 10-dose IC50 mode): 6.61
- pIC50 (MV4-11): 8.74
- pIC50 (THP-1): 6.30
- pIC50 (MOLM13): 8.89
- survival versus vehicle [2]: significant survival advantage
- pIC50 (FLT3 (ITD)): > 9.00
- pIC50 (FLT3 (ITD); 10 μM ATP, 10-dose IC50 mode): 9.14
- tumor growth in xenograft models ([3]; 10 mg/kg intravenous every two days, 20 or 24-day treatment): complete tumor regression was achieved
- bodyweight during dosing ([3]; MV4-11 cell line xenograft model): no significant weight suppression
- H&E staining in liver, heart, spleen, lung and kidney ([3]; MV4-11 cell line xenograft model, end of experiment): no significant damage
- tumor regrowth after dosing was halted ([3]; monitored for an additional 20 days): No tumor regrowth was observed
- antileukemic activity in blasts with FLT3-ITD mutations [4]: comparable antileukemic activity
- pKd (FLT3): 8.48
- pIC50 (MOLM13 cells; HS-5 conditional medium (CM) 40%, read-out: IC50 proliferation of MOLM13 cells in CM): 7.61
- pIC50 (MOLM13 cells; normal medium (NM), read-out: IC50 proliferation of MOLM13 cells in NM): 7.70
- pIC50 (JAK2): 7.47
